# Measured values: patent US20230031406A1, “COMPOUNDS AND COMPOSITIONS FOR TREATING CONDITIONS ASSOCIATED WITH NLRP ACTIVITY” (Novartis AG, priority 2018, published 2023)
# pIC50: −log10 of the molar value.
# Test system: PMA-differentiated THP-1 cells
# Assay: IL-1β production in PMA-differentiated THP-1 cells stimulated with gramicidin (hTHP-1 assay containing 2% fetal bovine serum; Procedures 1 and 2)
# Type: cell-based, human
# Conditions: Homo sapiens, THP-1, Table B2; 2% fetal bovine serum; class symbols; read-out: hTHP-1 IC50
# Procedure, shortened: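 THP-1 cells were differentiated with PMA (20 ng/ml, 16-18 h), detached, and plated at 50,000 cells/well in RPMI 1640 with 2% FBS. They were pre-treated with compound (0.0017–100 μM, 0.37% DMSO) for 1 h, then stimulated with gramicidin (5 μM) for 2 h. Supernatant IL-1β was measured by HTRF.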
row,pIC50,SMILES
1,6.00 to 6.70,CC(C)(CO)c1ncc(S(N)(=O)=NC(=O)Nc2c3c(nc4c2CCC4(C)C)CCC3)s1 (stereo not drawn) [Compound 737]
2,5.30 to 6.00,"C[C@@H]1CCc2c1nc1c(c2NC(=O)N=S(N)(=O)c2ccn(C)n2)CCC1 (stereo partly drawn) [Compound 639, 1-Methyl-N′-(((R)-3-methyl-1,2,3,5,6,7-hexahydrodicyclopenta[b,e]pyridin-8-yl)carbamoyl)-1H-pyrazole-3-sulfonimidamide]"
3,6.00 to 6.70,CCn1ccc([S@](N)(=O)=NC(=O)Nc2c3c(nc4c2CCC42CC2)CCC3)n1 [Compound 604b]
4,4.52 to 5.30,"CC(C)(O)c1scc(S(N)(=O)=NC(=O)Nc2c3c(nc4c2CCC4)CCC3)c1F (single isomer, unassigned) [Compound 701a, (R) or (S)-4-Fluoro-N′-((1,2,3,5,6,7-hexahydrodicyclopenta [b,e]pyridin-8-yl)carbamoyl)-5-(2-hydroxypropan-2-yl)thiophene-3-sulfonimidamide]"
5,5.30 to 6.00,"CC(C)n1cc(CO)c(S(N)(=O)=NC(=O)Nc2c3c(nc4c2CCC4(C)C)CCC3)n1 (single isomer, unassigned) [Compound 682b, (R) or (S)-N′-((3,3-dimethyl-1,2,3,5,6,7-hexahydrodicyclopenta [b,e]pyridin-8-yl)carbamoyl)-4-(hydroxymethyl)-1-isopropyl-1H-pyrazole-3-sulfonimidamide]"
6,5.30 to 6.00,"COCCOC[C@@](C)(O)c1ncc(S(N)(=O)=NC(=O)Nc2c3c(nc4c2CCC4(C)C)CCC3)s1 (stereo partly drawn) [Compound 736, N′-((3,3-dimethyl-1,2,3,5,6,7-hexahydrodicyclopenta [b,e]pyridin-8-yl)carbamoyl)-2-((R)-2-hydroxy-1-(2-methoxyethoxy)propan-2-yl)thiazole-5-sulfonimidamide]"

# Same assay, conditions: Homo sapiens, THP-1, Table B2; 2% fetal bovine serum; numeric bounds; read-out: hTHP-1 IC50
row,pIC50,SMILES
1,< 4.52,"Cc1c(C2CCC2)nc2c(c1NC(=O)N=S(N)(=O)c1cc(C(C)(C)O)cs1)CCC2 (single isomer, unassigned) [Compound 658a, (S) or (R)-N′-((2-cyclobutyl-3-methyl-6,7-dihydro-5H-cyclopenta[b]pyridin-4-yl)carbamoyl)-4-(2-hydroxypropan-2-yl)thiophene-2-sulfonimidamide]"
2,< 4.52,"CC(C)(O)c1sc(S(N)(=O)=NC(=O)Nc2c3c(nc4c2CCC4)CCC3)cc1F (single isomer, unassigned) [Compound 678b, (S) or (R)-4-Fluoro-N′-((1,2,3,5,6,7-hexahydrodicyclopenta [b,e]pyridin-8-yl)carbamoyl)-5-(2-hydroxypropan-2-yl)thiophene-2-sulfonimidamide]"

# Same assay, conditions: Homo sapiens, THP-1, Table B3; hTHP-1 assay, 2% fetal bovine serum; class symbols; read-out: IC50
row,pIC50,SMILES
1,5.30 to 6.00,CC1(C)CCc2c1nc1c(c2NC(=O)N=[S@@](N)(=O)c2sc(C(O)(CO)CO)nc2CO)CCC1 [Compound 985a]
2,7.40 to 8.10,"C[C@](O)(CO)c1cc(F)c([S@](N)(=O)=NC(=O)Nc2c3c(nc4c2CCC42CC2)CCC3)s1 [Example 678, (R)-5-((S)-1,2-dihydroxypropan-2-yl)-3-fluoro-N′-((1′,5′,6′,7′-tetrahydro-2′H-spiro[cyclopropane-1,3′-dicyclopenta[b,e]pyridin]-8′-yl)carbamoyl)thiophene-2-sulfonimidamide]"
3,6.70 to 7.40,"C[C@@H]1CCc2c1nc1c(c2NC(=O)N=[S@@](N)(=O)c2cc([C@@H](C)O)cs2)CCC1 (single isomer, unassigned) [Example 663, (R)-4-((R) or (S)-1-hydroxyethyl)-N′-(((R)-3-methyl-1,2,3,5,6,7-hexahydrodicyclopenta[b,e]pyridin-8-yl)carbamoyl) thiophene-2-sulfonimidamide]"

# Same assay, conditions: Homo sapiens, THP-1, Table B3; hTHP-1 assay, 2% fetal bovine serum; numeric values; read-out: IC50
row,SMILES,pIC50
1,"CCOC(=O)c1nc2c(c(NC(=O)N=S(=O)(N[Si](C)(C)C(C)(C)C)c3cnc(C(C)(C)O)s3)c1C)CCC2 (stereo not drawn) [Example 613, Ethyl 4-(3-(((tert-butyldimethylsilyl)amino)(2-(2-hydroxypropan-2-yl)thiazol-5-yl)(oxo)-l6-sulfaneylidene)ureido)-3-methyl-6,7-dihydro-5H-cyclopenta[b]pyridine-2-carboxylate]",< 4.52

# Same assay, conditions: Homo sapiens, THP-1, Table B4; 2% fetal bovine serum; class symbols; read-out: hTHP-1 IC50
row,pIC50,SMILES
1,5.30 to 6.00,"CCn1ncc(F)c1S(N)(=O)=NC(=O)Nc1c(C)c(C(F)(F)F)nc2c1CCC2 (stereo not drawn) [compound 754, 1-Ethyl-4-fluoro-N′-((3-methyl-2-(trifluoromethyl)-6,7-dihydro-5H-cyclopenta[b]pyridin-4-yl)carbamoyl)-1H-pyrazole-5-sulfonimidamide]"
2,6.00 to 6.70,"NS(=O)(=NC(=O)Nc1c2c(nc3c1CCC3)CCC2)c1nn(C(F)F)cc1F (single isomer, unassigned) [Example 759, (R) or (S)-1-(difluoromethyl)-4-fluoro-N′-((1,2,3,5,6,7-hexahydrodicyclopenta[b,e]pyridin-8-yl)carbamoyl)-1H-pyrazole-3-sulfonimidamide]"

# Same assay, conditions: Table B1; 2% fetal bovine serum; class symbols; read-out: Average IC50 of compounds in hTHP-1 assay: hTHP-1 IC50
row,pIC50,SMILES
1,6.00 to 6.70,"Cc1c(C2CC2)nc2c(c1NC(=O)N=S(N)(=O)c1cc(C(C)(C)O)cs1)CCC2 (single isomer, unassigned) [Compound 175b, (S) or (R)-N′-((2-cyclopropyl-3-methyl-6,7-dihydro-5H-cyclopenta[b]pyridin-4-yl)carbamoyl)-4-(2-hydroxy-propan-2-yl)thiophene-2-sulfonimidamide]"
2,5.30 to 6.00,"CC(C)c1ncc(F)c(C(C)C)c1NC(=O)N=S(N)(=O)c1cnc(C(C)(C)O)s1 (single isomer, unassigned) [Compound 164a, (R) or (S)-N′-((5-fluoro-2,4-diisopropylpyridin-3-yl)carbamoyl)-2-(2-hydroxypropan-2-yl)thiazole-5-sulfonimidamide]"
3,5.30 to 6.00,"CC(C)c1ncc(F)c(C(C)C)c1NC(=O)N=S(N)(=O)c1cc(C(C)(C)O)cs1 (single isomer, unassigned) [Compound 148b, (S) or (R)-N′-((5-fluoro-2,4-diisopropylpyridin-3-yl)carbamoyl)-4-(2-hydroxypropan-2-yl)thiophene-2-sulfonimidamide]"
4,6.70 to 7.40,"CC(C)n1ccc(S(N)(=O)=NC(=O)Nc2c3c(nc4c2CCC4(C)C)CCC3)n1 (single isomer, unassigned) [Compound 126a, (R) or (S)-N′-((3,3-dimethyl-1,2,3,5,6,7-hexahydro-dicyclopenta[b,e]pyridin-8-yl)carbamoyl)-1-isopropyl-1H-pyrazole-3-sulfonimidamide]"
5,5.30 to 6.00,"CC1CCc2c1nc1c(c2NC(=O)N=S(N)(=O)c2ccc(CN(C)C)cc2)CCC1 (stereo not drawn) [Compound 134, 4-((dimethylamino)methyl)-N′-((3-methyl-1,2,3,5,6,7-hexahydrodicyclopenta[b,e]pyridin-8-yl)carbamoyl)benzenesulfon-imidamide]"
6,5.30 to 6.00,"CC(C)(O)c1cc(F)c(S(N)(=O)=NC(=O)Nc2c3c(nc4c2CCC4(C)C)CCC3)s1 (single isomer, unassigned) [Compound 102a, (S) or (R)-N′-((3,3-dimethyl-1,2,3,5,6,7-hexahydro-dicyclopenta[b,e]pyridin-8-yl)carbamoyl)-3-fluoro-5-(2-hydroxy-propan-2-yl)thiophene-2-sulfonimidamide]"

# Same assay, conditions: Table B2; 2% fetal bovine serum; class symbols; read-out: hTHP-1 IC50
row,pIC50,SMILES
1,6.70 to 7.40,"CC(C)(O)c1cncc(S(N)(=O)=NC(=O)Nc2c3c(nc4c2CCC4(C)C)CCC3)c1 (single isomer, unassigned) [Compound 684a, (R) or (S)-N′-((3,3-dimethyl-1,2,3,5,6,7-hexahydrodicyclopenta [b,e]pyridin-8-yl)carbamoyl)-5-(2-hydroxypropan-2-yl)pyridine-3-sulfonimidamide]"
2,6.00 to 6.70,"CCc1nc2c(c(NC(=O)N=S(N)(=O)c3cc(C(C)(C)O)cs3)c1C1CC1)CCC2 (single isomer, unassigned) [Compound 654b]"
3,6.70 to 7.40,"Cc1c(C(C)C)nc2c(c1NC(=O)N=S(N)(=O)c1cnc(C(C)(C)O)s1)CCC2 (single isomer, unassigned) [Compound 650a, (R) or (S)-2-(2-Hydroxypropan-2-yl)-N′-((2-isopropyl-3-methyl-6,7-dihydro-5H-cyclopenta[b]pyridin-4-yl)carbamoyl)thiazole-5-sulfonimidamide]"
4,6.00 to 6.70,"Cc1c(C(F)(F)F)nc2c(c1NC(=O)N=S(N)(=O)c1cnc(C(C)(O)CO)s1)CCC2 (single isomer, unassigned) [Compound 605c]"
5,4.52 to 5.30,"Cc1c(C(F)(F)F)nc2c(c1NC(=O)N=S(N)(=O)c1sc(C(C)(C)O)cc1F)CCC2 (single isomer, unassigned) [Compound 632b, (S) or (R)-3-Fluoro-5-(2-hydroxypropan-2-yl)-N′-((3-methyl-2-(trifluoromethyl)-6,7-dihydro-5H-cyclopenta[b]pyridin-4-yl)carbamoyl) thiophene-2-sulfonimidamide]"

# Same assay, conditions: Table B3; hTHP-1 assay, 2% fetal bovine serum; class symbols; read-out: IC50
row,pIC50,SMILES
1,4.52 to 5.30,"CC(C)(O)c1cc(F)c(S(N)(=O)=NC(=O)Nc2c3c(nc(C(F)(F)F)c2C2CC2)CCC3)s1 (single isomer, unassigned) [Example 660, (S) or (R)-N′-((3-cyclopropyl-2-(trifluoromethyl)-6,7-dihydro-5H-cyclopenta[b]pyridin-4-yl)carbamoyl)-3-fluoro-5-(2-hydroxypropan-2-yl) thiophene-2-sulfonimidamide]"
2,6.70 to 7.40,"CCn1cc(F)c(S(N)(=O)=NC(=O)Nc2c3c(nc4c2CC[C@@H]4C)CCC3)n1 (single isomer, unassigned) [Example 711, (R) or (S)-1-ethyl-4-fluoro-N′-(((S)-3-methyl-1,2,3,5,6,7-hexahydrodicyclopenta[b,e]pyridin-8-yl)carbamoyl)-1H-pyrazole-3-sulfonimidamide]"
